According to article PMC11995216, “End-to-End Backbone Cyclization Enhances Passive Permeability of bRo5 Oligomeric Depsipeptides with Nonlinear Size Dependence” (ACS Medicinal Chemistry Letters, 2025):
Read-outs that look alike come from different tables or passages of the source.

Legend:
[1] = test system: PAMPA
[2] = test system: PAMPA; remark: listed apart in the source
[3] = PAMPA, permeability assay across an artificial membrane; conditions: for Acceptor Concentration, Ave: after incubation
[4] = PAMPA, ratio-based method, mean ± SD, C0 500 uM, UV detection

Question: Which Papp ([1]; Papp (x 10^-6 cm/s) – ELSD Detection / [row 1], ELSD Detection) does the source give for `CCCCC[C@@H]1OC(=O)[C@@H](C)N(C)C(=O)[C@H](CCCCC)OC(=O)[C@@H](C)N(C)C(=O)[C@H](CCCCC)OC(=O)[C@@H](C)N(C)C(=O)[C@H](CCCCC)OC(=O)[C@@H](C)N(C)C1=O` [Compound C1.4, ent-verticilide] here?
Answer: 7.05 ×10⁻⁶ cm/s

Question: What about the Papp ([1]; Papp (x 10^-6 cm/s) – ELSD Detection / [row 2], ELSD Detection) of the same molecule?
Answer: 7.2 ×10⁻⁶ cm/s

Question: What about the Papp ([1]; Papp (x 10^-6 cm/s) – ELSD Detection / [row 3], ELSD Detection) of the same molecule?
Answer: 4.28 ×10⁻⁶ cm/s

Question: What about the Papp ([1]; Papp (x 10^-6 cm/s) – ELSD Detection / [row 4], ELSD Detection) of the same molecule?
Answer: 7.39 ×10⁻⁶ cm/s

Question: And the Papp ([1]; Papp (x 10^-6 cm/s) – ELSD Detection / [row 5], ELSD Detection)?
Answer: 4.99 ×10⁻⁶ cm/s

Question: What about the Papp ([1]; Papp (x 10^-6 cm/s) – ELSD Detection / [row 6], ELSD Detection) of the same molecule?
Answer: 6.24 ×10⁻⁶ cm/s

Question: And the Papp ([1]; Papp (x 10^-6 cm/s) – ELSD Detection / [row 7], ELSD Detection)?
Answer: 5.58 ×10⁻⁶ cm/s

Question: What about the Papp ([1]; Papp (x 10^-6 cm/s) – ELSD Detection / [row 8], ELSD Detection) of the same molecule?
Answer: 7.27 ×10⁻⁶ cm/s

Question: What about the Papp ([1]; Papp (x 10^-6 cm/s) – ELSD Detection / [row 9], ELSD Detection) of the same molecule?
Answer: 4.68 ×10⁻⁶ cm/s

Question: What about the Papp ([1]; Papp (x 10^-6 cm/s) – ELSD Detection / [row 10], ELSD Detection) of the same molecule?
Answer: 4.63 ×10⁻⁶ cm/s

Question: And the Papp ([1]; Papp (x 10^-6 cm/s) – ELSD Detection / [row 11], ELSD Detection)?
Answer: 4.05 ×10⁻⁶ cm/s

Question: What about the Papp ([1]; Papp (x 10^-6 cm/s) – ELSD Detection / [row 12], ELSD Detection) of the same molecule?
Answer: 6.98 ×10⁻⁶ cm/s

Question: What about the Papp ([1]; Papp (x 10^-6 cm/s) – ELSD Detection / [row 13], ELSD Detection) of the same molecule?
Answer: 4.62 ×10⁻⁶ cm/s

Question: And the Papp ([1]; Papp (x 10^-6 cm/s) – ELSD Detection / [row 14], ELSD Detection)?
Answer: 3.79 ×10⁻⁶ cm/s

Question: And the Papp ([1]; Papp (x 10^-6 cm/s) – ELSD Detection / [row 15], ELSD Detection)?
Answer: 4.66 ×10⁻⁶ cm/s

Question: What about the Papp ([1]; Papp (x 10^-6 cm/s) – ELSD Detection / [row 16], ELSD Detection) of the same molecule?
Answer: 5.98 ×10⁻⁶ cm/s

Question: What about the Papp ([1]; Papp (x 10^-6 cm/s) – ELSD Detection / [row 17], ELSD Detection) of the same molecule?
Answer: 5.46 ×10⁻⁶ cm/s

Question: And the Papp ([1]; Papp (x 10^-6 cm/s) – ELSD Detection / [row 18], ELSD Detection)?
Answer: 6.2 ×10⁻⁶ cm/s

Question: What about the Papp ([1]; Papp (x 10^-6 cm/s) – ELSD Detection / [row 19], ELSD Detection) of the same molecule?
Answer: 5.51 ×10⁻⁶ cm/s

Question: What about the Papp ([1]; Papp (x 10^-6 cm/s) – ELSD Detection / [row 20], ELSD Detection) of the same molecule?
Answer: 5.72 ×10⁻⁶ cm/s

Question: What about the Papp ([1]; Papp (x 10^-6 cm/s) – ELSD Detection / [row 21], ELSD Detection) of the same molecule?
Answer: 4.75 ×10⁻⁶ cm/s

Question: And the Papp ([1]; Papp (x 10^-6 cm/s) – ELSD Detection / [row 22], ELSD Detection)?
Answer: 7.56 ×10⁻⁶ cm/s

Question: What about the Papp ([1]; Papp (x 10^-6 cm/s) – ELSD Detection / [row 23], ELSD Detection) of the same molecule?
Answer: 7.22 ×10⁻⁶ cm/s

Question: And the Papp ([1]; Papp (x 10^-6 cm/s) – ELSD Detection / [row 24], ELSD Detection)?
Answer: 4.78 ×10⁻⁶ cm/s

Question: What about the Papp ([1]; Papp (x 10^-6 cm/s) – UV Detection / [row 1], UV Detection) of the same molecule?
Answer: 6.39 ×10⁻⁶ cm/s

Question: What about the Papp ([1]; Papp (x 10^-6 cm/s) – UV Detection / [row 2], UV Detection) of the same molecule?
Answer: 7.95 ×10⁻⁶ cm/s

Question: What about the Papp ([1]; Papp (x 10^-6 cm/s) – UV Detection / [row 3], UV Detection) of the same molecule?
Answer: 6.48 ×10⁻⁶ cm/s

Question: And the Papp ([1]; Papp (x 10^-6 cm/s) – UV Detection / [row 4], UV Detection)?
Answer: 7.85 ×10⁻⁶ cm/s

Question: And the Papp ([1]; Papp (x 10^-6 cm/s) – UV Detection / [row 5], UV Detection)?
Answer: 6.83 ×10⁻⁶ cm/s

Question: What about the Papp ([1]; Papp (x 10^-6 cm/s) – UV Detection / [row 6], UV Detection) of the same molecule?
Answer: 7.11 ×10⁻⁶ cm/s

Question: And the Papp ([1]; Papp (x 10^-6 cm/s) – UV Detection / [row 7], UV Detection)?
Answer: 6.85 ×10⁻⁶ cm/s

Question: What about the Papp ([1]; Papp (x 10^-6 cm/s) – UV Detection / [row 8], UV Detection) of the same molecule?
Answer: 7.63 ×10⁻⁶ cm/s

Question: And the Papp ([1]; Papp (x 10^-6 cm/s) – UV Detection / [row 9], UV Detection)?
Answer: 4.68 ×10⁻⁶ cm/s

Question: And the Papp ([1]; Papp (x 10^-6 cm/s) – UV Detection / [row 10], UV Detection)?
Answer: 4.63 ×10⁻⁶ cm/s

Question: And the Papp ([1]; Papp (x 10^-6 cm/s) – UV Detection / [row 11], UV Detection)?
Answer: 4.05 ×10⁻⁶ cm/s

Question: And the Papp ([1]; Papp (x 10^-6 cm/s) – UV Detection / [row 12], UV Detection)?
Answer: 6.98 ×10⁻⁶ cm/s

Question: What about the Papp ([1]; Papp (x 10^-6 cm/s) – UV Detection / [row 13], UV Detection) of the same molecule?
Answer: 4.62 ×10⁻⁶ cm/s

Question: What about the Papp ([1]; Papp (x 10^-6 cm/s) – UV Detection / [row 14], UV Detection) of the same molecule?
Answer: 3.79 ×10⁻⁶ cm/s

Question: And the Papp ([1]; Papp (x 10^-6 cm/s) – UV Detection / [row 15], UV Detection)?
Answer: 4.66 ×10⁻⁶ cm/s

Question: And the Papp ([1]; Papp (x 10^-6 cm/s) – UV Detection / [row 16], UV Detection)?
Answer: 5.98 ×10⁻⁶ cm/s

Question: What about the Papp ([1]; Papp (x 10^-6 cm/s) – UV Detection / [row 17], UV Detection) of the same molecule?
Answer: 6.44 ×10⁻⁶ cm/s

Question: And the Papp ([1]; Papp (x 10^-6 cm/s) – UV Detection / [row 18], UV Detection)?
Answer: 7.86 ×10⁻⁶ cm/s

Question: And the Papp ([1]; Papp (x 10^-6 cm/s) – UV Detection / [row 19], UV Detection)?
Answer: 4.86 ×10⁻⁶ cm/s

Question: What about the Papp ([1]; Papp (x 10^-6 cm/s) – UV Detection / [row 20], UV Detection) of the same molecule?
Answer: 6.27 ×10⁻⁶ cm/s

Question: And the Papp ([1]; Papp (x 10^-6 cm/s) – UV Detection / [row 21], UV Detection)?
Answer: 6.77 ×10⁻⁶ cm/s

Question: What about the Papp ([1]; Papp (x 10^-6 cm/s) – UV Detection / [row 22], UV Detection) of the same molecule?
Answer: 5.18 ×10⁻⁶ cm/s

Question: What about the Papp ([1]; Papp (x 10^-6 cm/s) – UV Detection / [row 23], UV Detection) of the same molecule?
Answer: 5.55 ×10⁻⁶ cm/s

Question: And the Papp ([1]; Papp (x 10^-6 cm/s) – UV Detection / [row 24], UV Detection)?
Answer: 6.05 ×10⁻⁶ cm/s

Question: And the Acceptor Concentration ([2]; Acceptor Concentration (uM) – ELSD Detection / [row 1])?
Answer: 122 µM

Question: And the Acceptor Concentration ([2]; Acceptor Concentration (uM) – ELSD Detection / [row 2])?
Answer: 148 µM

Question: And the Acceptor Concentration ([2]; Acceptor Concentration (uM) – ELSD Detection / [row 3])?
Answer: 157 µM

Question: What about the Acceptor Concentration ([2]; Acceptor Concentration (uM) – ELSD Detection / [row 4]) of the same molecule?
Answer: 122 µM

Question: What about the Acceptor Concentration ([2]; Acceptor Concentration (uM) – ELSD Detection / [row 5]) of the same molecule?
Answer: 137 µM

Question: What about the Acceptor Concentration ([2]; Acceptor Concentration (uM) – ELSD Detection / [row 6]) of the same molecule?
Answer: 76.5 µM

Question: What about the Acceptor Concentration ([2]; Acceptor Concentration (uM) – ELSD Detection / [row 7]) of the same molecule?
Answer: 98.2 µM

Question: And the Acceptor Concentration ([2]; Acceptor Concentration (uM) – ELSD Detection / [row 8])?
Answer: 94.4 µM

Question: And the Acceptor Concentration ([2]; Acceptor Concentration (uM) – ELSD Detection / [row 9])?
Answer: 105 µM

Question: What about the Acceptor Concentration ([2]; Acceptor Concentration (uM) – ELSD Detection / [row 10]) of the same molecule?
Answer: 92.1 µM

Question: What about the Acceptor Concentration ([2]; Acceptor Concentration (uM) – ELSD Detection / [row 11]) of the same molecule?
Answer: 114 µM

Question: What about the Acceptor Concentration ([2]; Acceptor Concentration (uM) – ELSD Detection / [row 12]) of the same molecule?
Answer: 159 µM

Question: And the Acceptor Concentration ([2]; Acceptor Concentration (uM) – ELSD Detection / [row 13])?
Answer: 121 µM

Question: And the Acceptor Concentration ([2]; Acceptor Concentration (uM) – ELSD Detection / [row 14])?
Answer: 125 µM

Question: What about the Acceptor Concentration ([2]; Acceptor Concentration (uM) – ELSD Detection / [row 15]) of the same molecule?
Answer: 150 µM

Question: And the Acceptor Concentration ([2]; Acceptor Concentration (uM) – ELSD Detection / [row 16])?
Answer: 136 µM

Question: And the Acceptor Concentration ([2]; Acceptor Concentration (uM) – ELSD Detection / [row 17])?
Answer: 142 µM

Question: And the Acceptor Concentration ([2]; Acceptor Concentration (uM) – ELSD Detection / [row 18])?
Answer: 129 µM

Question: And the Acceptor Concentration ([2]; Acceptor Concentration (uM) – ELSD Detection / [row 19])?
Answer: 90.2 µM

Question: What about the Acceptor Concentration ([2]; Acceptor Concentration (uM) – ELSD Detection / [row 20]) of the same molecule?
Answer: 59.8 µM

Question: And the Acceptor Concentration ([2]; Acceptor Concentration (uM) – ELSD Detection / [row 21])?
Answer: 91.7 µM

Question: And the Acceptor Concentration ([2]; Acceptor Concentration (uM) – ELSD Detection / [row 22])?
Answer: 130 µM

Question: And the Acceptor Concentration ([2]; Acceptor Concentration (uM) – ELSD Detection / [row 23])?
Answer: 115 µM

Question: And the Acceptor Concentration ([2]; Acceptor Concentration (uM) – ELSD Detection / [row 24])?
Answer: 125 µM

Question: And the “Diffusion (%)” value ([3]; PAMPA percent diffusion, C0 500 uM)?
Answer: 25.5 ± 3.4%

Question: And the Papp at 500 uM ([3]; PAMPA, Ave, ELSD detection, C0 500 uM)?
Answer: 5.69 ×10⁻⁶ cm/s

Question: And the Papp at 500 uM [3, 4]?
Answer: 7.14 ± 0.65 ×10⁻⁶ cm/s

Question: And the “Acceptor Concentration, Ave” value ([3]; PAMPA, ELSD detection, C0 500 uM)?
Answer: 118.4 µM

Question: And the “Acceptor Concentration, Ave” value ([3]; PAMPA, UV detection, C0 500 uM)?
Answer: 127.6 µM

Question: And the “Acceptor Concentration, Ave” value ([3]; PAMPA, UV detection, C0 500 uM, listed as ent‐Verticilide)?
Answer: 127.56 µM

Question: What about the LogPapp [3, 4] of the same molecule?
Answer: -5.21 ± 0.09

Question: And the Δ % diffusion ([3]; increase: difference between percent diffusion of macrocycle vs linear counterpart)?
Answer: ↑14%
